Laboratory results: PMC4177392, “Modulation of Cytochrome P450 Metabolism and Transport across Intestinal Epithelial Barrier by Ginger Biophenolics” (PLoS ONE, 2014)
Values after ≈ are worked out from the molar mass of the structure shown.

Legend:
CYP2A6 = biological target: T1, CYP2A6 (Homo sapiens, UniProt P11509); experiment: CYP2A6 inhibition in human liver microsomes (substrate coumarin); format: in vitro ADME
T1 sequence (P11509 1-494): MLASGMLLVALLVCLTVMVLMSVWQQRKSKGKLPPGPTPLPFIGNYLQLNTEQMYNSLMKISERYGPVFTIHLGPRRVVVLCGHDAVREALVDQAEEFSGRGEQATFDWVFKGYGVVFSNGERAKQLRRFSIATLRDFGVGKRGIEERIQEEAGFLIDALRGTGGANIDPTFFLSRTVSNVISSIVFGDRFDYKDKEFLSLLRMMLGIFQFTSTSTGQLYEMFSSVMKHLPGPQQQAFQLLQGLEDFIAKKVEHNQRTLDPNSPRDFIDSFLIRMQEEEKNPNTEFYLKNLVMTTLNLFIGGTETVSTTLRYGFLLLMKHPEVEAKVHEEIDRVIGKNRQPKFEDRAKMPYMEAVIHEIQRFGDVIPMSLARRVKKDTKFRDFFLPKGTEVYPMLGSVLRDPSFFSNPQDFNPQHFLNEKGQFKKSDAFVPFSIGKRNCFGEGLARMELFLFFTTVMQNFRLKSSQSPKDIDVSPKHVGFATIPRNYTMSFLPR
Method: The highest concentration of GE used in the assay was 500 µg/mL equivalent. Stock solution for each CYP specific probe substrate was prepared in such a way that the final concentration is below the reported Km value.
A microsome-buffer-substrate mixture (MBS mix) was prepared for each isozyme by pre-mixing appropriate volumes of sodium phosphate buffer (pH 7.4, 50 mM), microsomes and substrate (Table S2 in File S1). 179 µL of MBS mix was transferred to 96-well reaction plate to which 1 µL of inhibitor stock solution was added to achieve the final target inhibitor concentration. The reaction plate was pre-incubated for 10 min at 37°C followed by reaction initiation by addition of 20 µL of 10 mM NADPH solution. The reaction plate was then incubated at 37°C for a predetermined time period following which it was quenched with 200 µL ACN for all CYPs and 200 µL 1% formic acid in water∶ACN (70∶30) for CYP1A2. In all cases, the final incubations after addition of substrate and inhibitor contained 0.1% DMSO (v/v), and the total organic solvent (DMSO and ACN) content was less than or equal to 1% (v/v). […] The incubations were performed in singlet for individual gingerols and in duplicate for GE along with respective positive controls.

CYP2E1 = CYP2E1 (Homo sapiens, UniProt P05181); experiment: CYP2E1 inhibition in human liver microsomes (substrate chlorzoxazone); conditions: human liver microsomes, substrate chlorzoxazone, positive control
Method: Stock solution for each CYP specific probe substrate was prepared in such a way that the final concentration is below the reported Km value.
A microsome-buffer-substrate mixture (MBS mix) was prepared for each isozyme by pre-mixing appropriate volumes of sodium phosphate buffer (pH 7.4, 50 mM), microsomes and substrate (Table S2 in File S1). 179 µL of MBS mix was transferred to 96-well reaction plate to which 1 µL of inhibitor stock solution was added to achieve the final target inhibitor concentration. The reaction plate was pre-incubated for 10 min at 37°C followed by reaction initiation by addition of 20 µL of 10 mM NADPH solution. The reaction plate was then incubated at 37°C for a predetermined time period following which it was quenched with 200 µL ACN for all CYPs and 200 µL 1% formic acid in water∶ACN (70∶30) for CYP1A2. In all cases, the final incubations after addition of substrate and inhibitor contained 0.1% DMSO (v/v), and the total organic solvent (DMSO and ACN) content was less than or equal to 1% (v/v). The details of final substrate concentration, incubation time, microsomal protein concentration in the reaction mixtures and the metabolites monitored for each isozyme tested are presented in Table S3 in File S1.
All samples were processed using protein precipitation method and analyzed by employing positive (for all CYPs) and negative (for CYP2A6, 2C19 and 2E1) ionization mode in liquid chromatography tandem mass spectrometry (API4000, Applied Biosystems, USA). The peak area ratio of analyte to IS was used for calculations. An isocratic method comprising 5 mM ammonium formate and ACN (40∶60) with 0.05% formic acid was used for elution. For CYP2C19, a mobile phase consisting of 5 mM ammonium formate and ACN (30∶70) was used. The analytes and internal standards were retained on BDS Hypersil Phenyl (150×4.6 mm, 5 µ, Thermo, USA) column. A flow rate of 0.5 mL/min (CYP1A2), 0.6 mL/min (CYP2C19, CYP2E1), 0.7 mL/min (CYP2C9), 0.8 mL/min (CYP2A6, CYP3A), 1.0 mL/min (CYP2B6, CYP2C8, CYP2D6) was maintained using Shimadzu Prominence solvent delivery system (LC-20AD). The mobile phase was degassed using degasser (DGU-20A3), samples were loaded into autosampler (SIL-HTc) and the column temperature was maintained at 40°C by column oven (CTO-20A). Injection volumes for the samples were as follows: 5 µL (CYP1A2, CYP2D6, and CYP3A), 10 µL (CYP2B6, CYP2C8, and CYP2E1) and 20 µL (CYP2A6, CYP2C9, and CYP2C19). Data was collected and processed using Sciex Analyst 1.4.2. All the structures of inhibitors, substrates, metabolites and internal standards for each CYP enzyme are represented in Table S6 in File S1.
The IC50 value was estimated from the percentage reduction in CYP activity at eleven inhibitor concentrations with respect to control.
The data was analysed using 4PL (parameter logistic model), 3PLFB (bottom fixed), 3PLFT (top fixed), 2PL (top and bottom fixed), and the relative IC50 was with lowest standard error was further manipulation. Absolute IC50 was calculated from this relative IC50 by using the equation below: [drawing 3]

Chain of CYP2E1 (P05181 whole entry): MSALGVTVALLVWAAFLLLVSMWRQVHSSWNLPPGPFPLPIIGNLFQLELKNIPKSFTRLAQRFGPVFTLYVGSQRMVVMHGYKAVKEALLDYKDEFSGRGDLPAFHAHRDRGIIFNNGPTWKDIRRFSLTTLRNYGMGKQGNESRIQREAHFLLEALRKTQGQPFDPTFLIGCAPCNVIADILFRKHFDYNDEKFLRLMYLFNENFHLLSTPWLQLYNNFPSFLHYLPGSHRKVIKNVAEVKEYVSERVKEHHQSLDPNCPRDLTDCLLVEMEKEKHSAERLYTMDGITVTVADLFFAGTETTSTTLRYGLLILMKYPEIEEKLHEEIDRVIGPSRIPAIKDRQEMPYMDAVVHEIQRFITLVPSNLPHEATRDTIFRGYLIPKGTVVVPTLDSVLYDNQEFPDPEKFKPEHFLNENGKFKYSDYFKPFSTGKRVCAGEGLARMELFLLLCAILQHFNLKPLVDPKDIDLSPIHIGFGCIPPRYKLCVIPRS

N[C@@H]1C[C@H]1c1ccccc1 (racemic) [Tranylcypromine, reference compound]
IC50 CYP2A6 (CYP2A6; human liver microsomes, substrate coumarin, positive control): 0.0084 µg/mL (≈ 0.0631 µM)
CYP2A6 inhibition, fold more effective than the test compounds (CYP2A6; positive control vs test compounds): ~4000 fold
IC50 CYP2E1 (CYP2E1): 0.5793 µg/mL (≈ 4.35 µM)
IC50 CYP2E1 (CYP2E1; listed as tranylcypromine): 0.579 µg/mL (≈ 4.35 µM)
